Source: patent US20210205264A1, “USE OF DELTA-TOCOTRIENOL FOR TREATING CANCER” (H. LEE MOFFITT CANCER CENTER & RESEARCH INSTITUTE INC., priority 2018, published 2021)

Assays:
hCAS = molecular target: T1, hCAS (Homo sapiens, UniProt P55060); assay: Streptavidin bead capture of hCAS from treated MiaPaCa-2 cells; type: binding; conditions: derived from biotinylated probes
T1 construct: endogenous in cells; host or cells: MiaPaCa-2 human pancreatic cancer cells
T1 sequence (P55060 1-971): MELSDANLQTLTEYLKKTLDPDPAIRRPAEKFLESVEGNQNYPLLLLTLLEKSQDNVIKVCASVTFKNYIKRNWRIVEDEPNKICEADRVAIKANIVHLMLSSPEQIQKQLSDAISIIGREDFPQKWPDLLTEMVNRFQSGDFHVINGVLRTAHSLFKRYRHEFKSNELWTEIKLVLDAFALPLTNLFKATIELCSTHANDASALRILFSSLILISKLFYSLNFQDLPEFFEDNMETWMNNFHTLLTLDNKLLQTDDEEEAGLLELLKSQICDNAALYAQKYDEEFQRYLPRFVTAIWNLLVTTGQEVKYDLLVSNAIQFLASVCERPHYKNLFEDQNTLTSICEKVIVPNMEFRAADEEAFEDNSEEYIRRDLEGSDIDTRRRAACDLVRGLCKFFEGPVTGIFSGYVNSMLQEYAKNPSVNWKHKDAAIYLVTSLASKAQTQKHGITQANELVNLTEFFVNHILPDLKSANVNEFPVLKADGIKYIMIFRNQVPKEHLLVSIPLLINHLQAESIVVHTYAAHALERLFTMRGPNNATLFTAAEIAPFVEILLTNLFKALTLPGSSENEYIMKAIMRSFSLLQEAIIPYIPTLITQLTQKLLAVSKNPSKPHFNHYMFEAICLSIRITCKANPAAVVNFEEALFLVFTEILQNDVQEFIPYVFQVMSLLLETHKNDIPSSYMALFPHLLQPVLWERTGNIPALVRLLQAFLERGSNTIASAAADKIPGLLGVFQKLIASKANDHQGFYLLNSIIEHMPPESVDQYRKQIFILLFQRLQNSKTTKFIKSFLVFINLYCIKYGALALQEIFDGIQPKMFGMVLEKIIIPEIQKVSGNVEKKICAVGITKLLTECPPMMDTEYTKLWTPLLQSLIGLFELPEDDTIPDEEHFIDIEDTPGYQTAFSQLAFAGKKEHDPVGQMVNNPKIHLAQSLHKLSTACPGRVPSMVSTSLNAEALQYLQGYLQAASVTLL
Protocol: To confirm that δ-T3 binds to hCAS in intact cells, biotinylated δ-T3 (B-δ-T3) was prepared by chemically coupling the —OH group of δ-T3 to the —COOH of biotin using a PEG-iodoactamide linker (FIG. 18).
MiaPaCa-2 human pancreatic cancer cells were treated for 24 hours with biotin alone (B), B-δ-T3 or B-TOCOPH. The cells were then lysed, and the lysates incubated with streptavidin beads, and the captured proteins processed for Western blotting.

[1] = system: AOM induced rat colon cancer model; assay: AOM induced rat colon cancer model; type: in vivo, Fisher 344 rat
Excerpt: FIGS. 3A, 3B, 3C and 3D show the number of polyps (FIG. 3A) and cancer (FIG. 3C) with H&E stain of representative areas of polyp (FIG. 3B) and cancer (FIG. 3D) following no treatment (NT), treatment with vehicle (V), sulindac, and d-T3 in AOM-induced Fisher 344 rat model of colon carcinogenesis.
To confirm the CRC prevention activity of d-T3, the activity of d-T3 was investigated and compared this with sulindac, another established NSAID with chemoprevention activity against CRC in the AOM induced rat colon cancer model.

[2] = system: intestinal stem cells of ApcMin/+ mice; assay: Caspase 3 staining of intestinal crypts in ApcMin/+ mice; type: in vivo; conditions: small intestinal crypts of ApcMin/+ mice
Excerpt: Although substantial preclinical evidence exists regarding the preventive activity of d-T3 and g-T3 in various types of cancers, there is no report of d-T3 prevention of colon cancer despite evidence of activity in colon cell lines and xenograft models. […] Treatment with aspirin alone reduced adenoma formation by 38%, and treatment with d-T3 alone reduced adenoma formation by 44%, while treatment with the combination of aspirin and d-T3 reduced adenoma formation by 58%.

SMILES: CC(C)=CCC/C(C)=C/CC/C(C)=C/CC[C@]1(C)CCc2cc(O)cc(C)c2O1 [d-T3, δ-tocotrienol]
- binds hCAS in intact pancreatic cancer cells (hCAS): binds hCAS
- cancer formation [1]: almost completely blocked
- formation of intestinal polyps [1]: significantly inhibited
- apoptosis detected by caspase 3 staining [2]: markedly induced apoptosis
